The values that follow come from US10736934B2, “Proteasome modulation for treatment of corneal disorders” (The Lundquist Institute, priority 2015, dated 2020).

Data set [1] relates to 26S constitutive proteasome (CPR). Kind of data set: Proteasome chymotrypsin-like activity in cultured oral mucosa epithelial cells treated with PS-341. The data set is classed as cell-based, rabbit. The procedure: (§1) After two weeks of cell culture and when the cells grew to form a multilayered tissue like, proteasome inhibitor (PS-341, (Bortezomib/Velcade®, Millennium Pharmaceutical, a highly specific proteasome inhibitor) was added in cell culture media for 24 h and for 72 h at 2.5, 5, 10, 20, and 50 nM, to, respectively achieve proteasome inhibition or proteasome activation.
One μg of total protein from sample homogenates was used. The reaction mixture contained 50 mM Tris-HCl pH=8, 1 mM DTT, and 40 μM Suc-Leu-Leu-Val-Tyr-AMC (Sigma Aldrich) substrate for chymotrypsin-like activity or 40 μM of Boc-Leu-Ser-Thr-Arg-AMC for trypsin-like activity or 100 uM of Ac-Gly-Pro-Leu-Asp-AMC (Sigma Aldrich) for Caspase-like activity. 5 mM ATP was added to the reaction mixture to distinguish 26S proteasome activity from 20S proteasome activity. The mixture was then incubated for 30 min at 37° C., and then stopped by adding […] monochloroacetate and 30 mM sodium acetate pH=4.3. Fluorescence was determined by measuring the release of AMC (λ, excitation: 370 nm, λ, emission: 410 nm), using a Perkin Elmer LS 30 spectrofluorometer.

A further data set concerns Keratin 13 (K13). The experiment in a line: Western blot of K13 in PS-341-treated oral mucosa epithelial cells. To be noted: OMECS. The data set is classed as cell-based, rabbit. The procedure:
as §1

Another data set relates to Keratin 4 (K4). Kind of data set: Western blot of K4 in PS-341-treated oral mucosa epithelial cells. The format is cell-based, rabbit. To be noted: OMECS. The procedure:
as §1

Data set [2] relates to poly-ubiquitinated proteins. The experiment in a line: Western blot of poly-ubiquitinated proteins in PS-341-treated oral mucosa epithelial cells. The data set is classed as cell-based, rabbit. Particulars: 2.5 nM PS-341, 72 h. The procedure:
as §1
(In general: In western blotting, separated proteins are transferred to a membrane and probed.)

The test system of data set [3] is oral mucosa epithelial cells (OMECS). The experiment in a line: Toxicity of low-dose PS-341 in oral mucosa epithelial cells. The data set is classed as cell-based, rabbit. To be noted: 2.5 nM PS-341 (very low dose), 72 h. The procedure: as §1
The next data set relates to IκB / NFκB. The experiment in a line: IκB / NFκB activation in PS-341-treated oral mucosa epithelial cells.
Where [4] appears, read: high doses 10 and 50 nM, 24 hours.

As to `CC(C)C[C@H](NC(=O)[C@H](Cc1ccccc1)NC(=O)c1cnccn1)B(O)O` [PS-341, Bortezomib], the “CPR chymotrypsin-like activity decrease” value in data set [1] (2.5 nM PS-341, 24 h, oral mucosa epithelial cells) is listed as 9%; in data set [1] (5 nM PS-341, 24 h, oral mucosa epithelial cells) it was −41%; in data set [1] (10 nM PS-341, 24 h, oral mucosa epithelial cells), −59%; in data set [1] (20 nM PS-341, 24 h, oral mucosa epithelial cells), −84%; in data set [1] (50 nM PS-341, 24 h, oral mucosa epithelial cells), −86%. The “increase in proteasome chymotrypsin-like activity versus untreated cells” value in data set [1] (2.5 nM PS-341, 72 hours, oral mucosa epithelial cells) is reported as 61%. Further, the “proteasome activities at 72 hours” value in data set [1] (5 nM PS-341, 72 hours, oral mucosa epithelial cells) is “increased proteasome activities”; in data set [1] (10 nM PS-341, 72 hours, oral mucosa epithelial cells), “increased proteasome activities”. Besides, the Chymotrypsine-like proteasome activity entry in data set [1] (high doses 10 and 50 nM, 24 hours, OMECS) is “decreased”. In the data set with Keratin 13 (K13) (2.5 nM PS-341, 72 hours), the K13 levels entry is on record as “decreased”. In addition, in the data set on Keratin 13 (K13) (setting [4]), the K13 level result is “modified and significantly accumulated”. The K4 levels entry with Keratin 4 (K4) (2.5 nM PS-341, 72 hours) is given as “decreased”. Besides, the K4 level entry with Keratin 4 (K4) (setting [4]) was “modified and significantly accumulated”. For the same molecule, in data set [2], the poly-ubiquitinated protein accumulation entry is recorded as “no significant poly-ubiquitinated protein accumulation”. Also, the toxic effects result in data set [3] was “does not produce toxic effects”. Further, the “levels of expression of Inhibitor Kappa B” value with IκB / NFκB (2.5 nM PS-341, 72 hours after treatment, OMECS) is recorded as “decreased”. The NFκB activation entry with IκB / NFκB (2.5 nM PS-341, OMECS) is listed as “blocked NFκB activation”. Further, the IκB entry in the data set on IκB / NFκB (2.5 nM PS-341, first 24 hours, OMECS) is “stabilizing IκB”.
